# Laboratory results published in US6554620B1, “Aqueous disinfectant/sterilizing agent for foods” (priority 2001, dated 2003).
# Values joined by “and” are separate entries in the source; they are usually repeats but may differ in a detail not shown here. Identical values can stand only once. Like-named read-outs stand apart in the source and are kept apart here.
# Assays:
# [1] = tested on: Salmonella typhimurium TA98; test: Reverse mutation screening assay; type: cell-based
# Method: (§1) The test was conducted at Biosafety Research Center for Foods, Drugs and Pesticides, in Shizuoka, Japan.
# [2] = tested on: Salmonella typhimurium TA100; test: Reverse mutation screening assay; type: cell-based
# Method: as §1
# [3] = cited from earlier work
# [4] = tested on: Escherihia coli (IFO 3972); test: Efficacy comparison (MIC method) of hinokitiol as single substance and the invented agent; type: cell-based, Escherichia coli; parameters: key to growth: growth of bacteria is shown as “+”; no growth is shown as “−”; details: 7 days at 30° C.
# Method: (§2) Escherihia coli (IFO 3972) and Aspergillus niger (IFO 4414) were used utilizing the minimum inhibitory method (MIC) to conduct a comparison testing the efficacy of hinokitiol as a single substance and the invented aqueous disinfectant.
# (§3) Type II of the invented agent as previously described, having a hinokitiol concentration of 0.1 weight % (1000 ppm) was diluted 10 times, 20 times, 50 times, and 100 times and standard agar plate for E-coli and potato dextrose agar plate for aspergillus niger were prepared for each concentration. With hinokitiol as single substance, for 1000 g of water, 1 g of hinokitiol was used to make 0.1% solution, and this was diluted 10 times, 20 times, 50 times, and 100 times and standard agar plates and potato dextrose plates were prepared at each concentration. E-coli and aspergillus niger were implanted to the plate and cultivated for 7 days at 30° C. and the growth of the bacteria was observed. The result are shown in Table 4 below, where growth of bacteria is shown as “+”, and no growth is shown as “−”.
# [5] = Water solubility of hinokitiol; type: physicochemical
# Excerpt: It has been said that the water solubility of hinokitiol as a single substance, in weight is maximum 0.2 weight %. However, in our experiment, we could not make it more than 0.1 weight %.
# With this invention, by mixing hinokitiol with the extract of aloe vera, green tea, low striped bamboo and dokudami, it is possible to make a 1.0 weight % water solution without difficulty. In addition to the above mixture, we have succeeded in making 10 weight % of concentration of hinokitiol in water basis by adding glycerin fatty acid ester as surface active agent and cara saponine, which is an emulsifier. Alcohol (ethanol) is not required as an ingredient to achieve the above noted high concentration of hinokitiol.
# It is known fact that with the addition of ethanol, it is possible to make 5 weight % water solution but for some foods, adding alcohol is not suitable and can change the taste of foods. Therefore, this invention of non-alcoholic water soluble disinfectant solution has particular significance.
# [6] = tested on: Aspergillus niger (IFO 4414); test: Efficacy comparison (MIC method) of hinokitiol as single substance and the invented agent; type: cell-based; parameters: key: growth of bacteria is shown as “+”; no growth is shown as “−”; details: 7 days at 30° C.
# Method: as §2, §3
# [7] = positive control requiring S9 mix, 0.5 μg/plate, Table 15
# [8] = positive control requiring S9 mix, 0.5 μg/plate, Table 16
# [9] = positive control requiring S9 mix, 1.0 μg/plate, Table 15
# [10] = positive control requiring S9 mix, 1.0 μg/plate, Table 16
# [11] = positive control not requiring S9 mix, 0.1 μg/plate, Table 15
# [12] = positive control not requiring S9 mix, 0.1 μg/plate, Table 16
# [13] = positive control not requiring S9 mix, 0.01 μg/plate, Table 15
# [14] = positive control not requiring S9 mix, 0.01 μg/plate, Table 16
# [15] = 10 times dilution of 0.1 weight % hinokitiol solution
# [16] = 20 times dilution of 0.1 weight % hinokitiol solution
# [17] = 50 times dilution of 0.1 weight % hinokitiol solution
# [18] = 100 times dilution of 0.1 weight % hinokitiol solution
smiles,measurement,setting,value
Nc1ccc2cc3ccccc3cc2c1 [2-AA],"No. of revertants, mean in parentheses",[1]; [7],200 colonies/plate
same,"No. of revertants, single plates",[1]; [7],203 colonies/plate and 196 colonies/plate
same,"No. of revertants, mean in parentheses",[1]; [8],208 colonies/plate
same,"No. of revertants, single plates",[1]; [8],197 colonies/plate and 219 colonies/plate
same,"No. of revertants, mean in parentheses",[2]; [9],686 colonies/plate
same,"No. of revertants, single plates",[2]; [9],683 colonies/plate and 688 colonies/plate
same,"No. of revertants, mean in parentheses",[2]; [10],649 colonies/plate
same,"No. of revertants, single plates",[2]; [10],647 colonies/plate and 650 colonies/plate
NC(=O)/C(=C\c1ccc([N+](=O)[O-])o1)c1ccco1 [AF-2],"No. of revertants, mean in parentheses",[1]; [11],733 colonies/plate
same,"No. of revertants, single plates",[1]; [11],747 colonies/plate and 718 colonies/plate
same,"No. of revertants, mean in parentheses",[1]; [12],692 colonies/plate
same,"No. of revertants, single plates",[1]; [12],698 colonies/plate and 686 colonies/plate
same,"No. of revertants, mean in parentheses",[2]; [13],370 colonies/plate
same,"No. of revertants, single plates",[2]; [13],377 colonies/plate and 363 colonies/plate
same,"No. of revertants, mean in parentheses",[2]; [14],410 colonies/plate
same,"No. of revertants, single plates",[2]; [14],408 colonies/plate and 412 colonies/plate
"CC(C)c1cccc(=O)c(O)c1 [Hinokitiol, β-Thujaplicin]","water solubility of hinokitiol as a single substance, maximum as has been said",[3]; in water,≤ 0.2 weight %
same,hinokitiol water solution obtainable,"[3]; with the addition of ethanol, known fact",5 weight %
same,growth,[4]; [15],−
same,growth,[4]; [16],+
same,growth,[4]; [17],+
same,growth,[4]; [18],+
same,hinokitiol concentration of the highest dilution that is effective (MIC method),[4]; E-coli and Aspergillus niger,0.01%
same,concentration of hinokitiol in water basis obtainable,"[5]; extracts plus glycerin fatty acid ester and cara saponine, no alcohol",10 weight %
same,"water solubility of hinokitiol as a single substance, in our experiment",[5]; in water,≤ 0.1 weight %
same,hinokitiol water solution obtainable,"[5]; mixed with extract of aloe vera, green tea, low striped bamboo and dokudami",1.0 weight %
same,growth,[6]; [15],−
same,growth,[6]; [16],+
same,growth,[6]; [17],+
same,growth,[6]; [18],+
